Laboratory results published in patent publication US9751881B2, “Inhibitors of the renal outer medullary potassium channel” (Merck Sharp & Dohme Corp., priority 2013, dated 2017).

What follows are compounds tested against hROMK (hKir1.1) (Homo sapiens (Human), UniProt P48048) (assay: Thallium Flux Assay (ROMK channel functional thallium flux, FLIPR-Tetra)). Conditions: HEK293 cells stably expressing hROMK (hKir1.1); unit not given in Table 4 (IC50 potencies less than 1 μM); read-out: ROMK TI IC50.
Assay type: cell-based
Procedure, shortened: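 HEK293 cells stably expressing hROMK, FluxOR dye-loaded 90 min, then compound 30 min at room temperature. Normalised to 3 μM reference ROMK inhibitor as % fluorescence change.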

Chain of hROMK (hKir1.1) (P48048 whole entry): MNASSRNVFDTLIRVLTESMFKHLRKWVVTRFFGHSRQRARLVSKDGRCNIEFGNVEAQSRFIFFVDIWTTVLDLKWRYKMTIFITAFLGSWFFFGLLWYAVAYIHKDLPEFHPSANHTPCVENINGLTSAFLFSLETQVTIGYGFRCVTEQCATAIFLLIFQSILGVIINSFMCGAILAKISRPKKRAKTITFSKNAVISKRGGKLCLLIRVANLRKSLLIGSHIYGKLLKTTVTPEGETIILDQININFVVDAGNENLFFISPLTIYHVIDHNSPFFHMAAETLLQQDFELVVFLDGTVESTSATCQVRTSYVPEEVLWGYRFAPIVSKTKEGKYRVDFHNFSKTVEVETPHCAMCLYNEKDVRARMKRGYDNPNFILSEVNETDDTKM

SMILES | IC50 [nM]
C=CCN[C@@H](CN1CCC2(CC1)CCN(c1ccc(C#N)cn1)C2)c1ccc2c(c1C)COC2=O [Example 78, (R)-6-(8-(2-(allylamino)-2-(4-methyl-1-oxo-1,3-dihydroisobenzofuran-5-yl)ethyl)-2,8-diazaspiro[4.5]decan-2-yl)nicotinonitrile] | 70.6
Cc1c([C@@H](N)CN2CCC3(CC2)CCN(c2ccc(C#N)cn2)C3)ccc2c1COC2=O [Example 79, (R)-6-(8-(2-amino-2-(4-methyl-1-oxo-1,3-dihydroisobenzofuran-5-yl)ethyl)-2,8-diazaspiro[4.5]decan-2-yl)nicotinonitrile] | 14.1
Cc1c([C@@H](O)CN2CCC3(CC2)CCN(c2ccc(-n4ccnn4)cc2)C3)ccc2c1COC2=O [Example 80] | 63.5
Cc1cc(N2CCC3(CCN(C[C@H](O)c4ccc5c(c4C)COC5=O)CC3)C2)cnc1C#N [Example 81] | 10.1
COc1cc(N2CCC3(CCN(C[C@H](O)c4ccc5c(c4C)COC5=O)CC3)C2)ncc1C#N [Example 82] | 32.8
Cc1c([C@@H](O)CN2CCC3(CC2)CCN(c2cnc(C#N)cn2)C3)ccc2c1COC2=O [Example 83] | 4.7
Cc1c([C@@H](O)CN2CCC3(CC2)CCN(c2cc(C#N)ccc2F)C3)ccc2c1COC2=O [Example 84] | 255
COc1ccc(C#N)cc1N1CCC2(CCN(C[C@H](O)c3ccc4c(c3C)COC4=O)CC2)C1 [Example 85] | 234
COc1cc(C#N)ccc1N1CCC2(CCN(C[C@H](O)c3ccc4c(c3C)COC4=O)CC2)C1 [Example 86] | 50.4
Cc1c([C@@H](O)CN2CCC3(CC2)CCN(c2ccc(C#N)nc2)C3)ccc2c1COC2=O [Example 87] | 88.7
CC1=CS(=O)(=O)c2ccc(N3CCC4(CCN(C[C@H](O)c5ccc6c(c5C)COC6=O)CC4)C3)cc21 [Example 88] | 353
Cc1c([C@@H](O)CN2CCC3(CC2)CCN(c2cccc(C#N)c2)C3)ccc2c1COC2=O [Example 89] | 118
Cc1c([C@@H](O)CN2CCC3(CC2)CCN(c2ncc(C#N)s2)C3)ccc2c1COC2=O [Example 90] | 6.7
Cc1c([C@@H](O)CN2CCC3(CC2)CN(c2ccc(S(C)(=O)=O)cn2)C(=O)O3)ccc2c1COC2=O [Example 91, (R)-8-(2-hydroxy-2-(4-methyl-1-oxo-1,3-dihydroisobenzofuran-5-yl)ethyl)-3-(5-(methylsulfonyl)pyridin-2-yl)-1-oxa-3,8-diazaspiro[4.5]decan-2-one] | 208
Cc1c([C@@H](O)CN2CCC3(CC2)CN(c2cnc(S(C)(=O)=O)cn2)C(=O)O3)ccc2c1COC2=O [Example 92, (R)-8-(2-Hydroxy-2-(4-methyl-1-oxo-1,3-dihydroisobenzofuran-5-yl)ethyl)-3-(5-(methylsulfonyl)pyrazin-2-yl)-1-oxa-3,8-diazaspiro[4.5]decan-2-one] | 125
CCS(=O)(=O)c1cnc(N2CC3(CCN(C[C@H](O)c4ccc5c(c4C)COC5=O)CC3)OC2=O)cn1 [Example 93, (R)-3-(5-(Ethylsulfonyl)pyrazin-2-yl)-8-(2-hydroxy-2-(4-methyl-1-oxo-1,3-dihydroisobenzofuran-5-yl)ethyl)-1-oxa-3,8-diazaspiro[4.5]decan-2-one] | 148
Cc1c([C@@H](O)CN2CCC3(CC2)CN(c2ccc(S(C)(=O)=O)cc2)C(=O)O3)ccc2c1COC2=O [Example 94, (R)-8-(2-Hydroxy-2-(4-methyl-1-oxo-1,3-dihydroisobenzofuran-5-yl)ethyl)-3-(4-(methylsulfonyl)phenyl)-1-oxa-3,8-diazaspiro[4.5]decan-2-one] | 159
COc1cc(N2CC3(CCN(C[C@H](O)c4ccc5c(c4C)COC5=O)CC3)OC2=O)ncc1C#N [Example 95, (R)-6-(8-(2-Hydroxy-2-(4-methyl-1-oxo-1,3-dihydroisobenzofuran-5-yl)ethyl)-2-oxo-1-oxa-3,8-diazaspiro[4.5]decan-3-yl)-4-methoxynicotinonitrile] | 84
Cc1c([C@@H](O)CN2CCC3(CC2)CCN(c2ccc(S(C)(=O)=O)cn2)C3=O)ccc2c1COC2=O [Example 96, (R)-8-(2-Hydroxy-2-(4-methyl-1-oxo-1,3-dihydroisobenzofuran-5-yl)ethyl)-2-(5-(methylsulfonyl)pyridin-2-yl)-2,8-diazaspiro[4.5]decan-1-one] | 86
Cc1c([C@@H](O)CN2CCC3(CC2)OCCN(c2ccc(S(C)(=O)=O)cn2)C3=O)ccc2c1COC2=O [Example 97, (R)-9-(2-Hydroxy-2-(4-methyl-1-oxo-1,3-dihydroisobenzofuran-5-yl)ethyl)-4-(5-(methylsulfonyl)pyridin-2-yl)-1-oxa-4,9-diazaspiro[5.5]undecan-5-one] | 187
Cc1c([C@@H](O)CN2CCC3(CC2)CN(c2ccc(S(C)(=O)=O)cn2)CCO3)ccc2c1COC2=O [Example 98, (R)-5-(1-Hydroxy-2-(4-(5-(methylsulfonyl)pyridin-2-yl)-1-oxa-4,9-diazaspiro[5.5]undecan-9-yl)ethyl)-4-methylisobenzofuran-1(3H)-one] | 376
Cc1c([C@@H](O)CN2CCC3(CC2)CN(c2ccc(S(C)(=O)=O)nc2)CCO3)ccc2c1COC2=O [Example 99, (R)-5-(1-Hydroxy-2-(4-(6-(methylsulfonyl)pyridin-3-yl)-1-oxa-4,9-diazaspiro[5.5]undecan-9-yl)ethyl)-4-methylisobenzofuran-1(3H)-one] | 168
Cc1c([C@@H](O)CN2CCC3(CC2)CN(c2ccc(C#N)cn2)CCO3)ccc2c1COC2=O [Example 101, (R)-6-(9-(2-Hydroxy-2-(4-methyl-1-oxo-1,3-dihydroisobenzofuran-5-yl)ethyl)-1-oxa-4,9-diazaspiro[5.5]undecan-4-yl)nicotinonitrile] | 39.6
COc1cc(N2CC3(CCN(C[C@H](O)c4ccc5c(c4C)COC5=O)CC3)OCC2=O)ncc1C#N [Example 102, (R)-6-(9-(2-Hydroxy-2-(4-methyl-1-oxo-1,3-dihydroisobenzofuran-5-yl)ethyl)-3-oxo-1-oxa-4,9-diazaspiro[5.5]undecan-4-yl)-4-methoxynicotinonitrile] | 16.7
Cc1c([C@@H](O)CN2CCC3(CC2)CCN(c2ccc(S(C)(=O)=O)nc2)CC3)ccc2c1COC2=O [Example 103, (R)-5-(1-hydroxy-2-(9-(6-(methylsulfonyl)148yridine-3-yl)-3,9-diazaspiro[5.5]undecan-3-yl)ethyl)-4-methylisobenzofuran-1(3H)-one] | 563
Cc1c([C@@H](O)CN2CCC3(CC2)CCN(c2ccc(C#N)nn2)CC3)ccc2c1COC2=O [Example 105, (R)-6-(9-(2-hydroxy-2-(4-methyl-1-oxo-1,3-dihydroisobenzofuran-5-yl)ethyl)-3,9-diazaspiro[5.5]undecan-3-yl)pyridazine-3-carbonitrile] | 13.5
Cc1c(C(O)CN2CCC3(CC2)CCN(c2cc(C#N)ncn2)CC3)ccc2c1COC2=O (stereo not shown) [Example 106] | 26.3
Cc1c(C(O)CN2CCC3(CC2)CCN(c2ncccc2C#N)CC3)ccc2c1COC2=O (stereo not shown) [Example 107] | 180
Cc1cc(C#N)cnc1N1CCC2(CCN(CC(O)c3ccc4c(c3C)COC4=O)CC2)CC1 (stereo not shown) [Example 108] | 255
Cc1c(C(O)CN2CCC3(CC2)CCN(c2ncc(C#N)cn2)CC3)ccc2c1COC2=O (stereo not shown) [Example 109] | 14.5

Same assay, conditions: read-out: ROMK TI IC50

SMILES | IC50 [nM]
Cc1c([C@@H](O)CN2CCC3(CC2)CCN(c2ccc(C#N)cn2)CC3)ccc2c1COC2=O [Example 104] | 26
